Results on three molecules are retold here after article PMC5355235, “FLT3 activating mutations display differential sensitivity to multiple tyrosine kinase inhibitors” (Oncotarget, 2017).

Assay type in all cases: cell-based
Assay [1] relates to BaF3 FLT3 840G+S mutant cells. In words: MTT growth inhibition assay, BaF3 FLT3 840G+S cells. The conditions noted are these: Mus musculus, no IL-3, 48 h, read-out: Proliferation IC50. On the procedure: (§1) Figure 1 Growth of AL mutants in the presence of FLT3 TKI The BaF3 AL mutants were grown in the absence of IL-3 and analyzed by treatment in increasing concentrations of FLT3 TKI for 48 hours, after which growth inhibition was assessed using the MTT assay. Means are representative of at least three independent experiments.
(§2) The cells were grown in the absence of IL3 and analyzed by treatment in increasing concentrations of FLT3 TKI for 48 hours, after which growth inhibition was assessed using the MTT assay. Each experiment was performed at least three times and representative results are shown.
(§3) Based on Trypan Blue exclusion, 2 × 10^4 viable cells were seeded in quadruplicate in a 96-well microtiter plate in the presence or absence of inhibitor for 48 h. The effect of drug activity on cell viability was measured using the 3-(4,5-Dimethylthiazol-2-yl)-2,5-diphenyltetrazolium bromide (MTT) assay according to the manufacturer's instructions (Roche Applied Science, Indianapolis, IN, USA). Following treatment, cells were incubated for 4 h in MTT followed by dissolution in solubilization buffer overnight. Absorbance was measured at 570 nm on a Bio-Rad plate reader (Hercules, CA, USA). […] Results shown are presented as means and are representative of at least three independent experiments.

Assay [2] has as its system BaF3 FLT3 D835L+K mutant cells. In words: MTT growth inhibition assay, BaF3 FLT3 D835L+K cells. The conditions noted are these: Mus musculus, no IL-3, 48 h, read-out: Proliferation IC50. As to the method:
as §1, §2, §3

Assay [3] has as its system BaF3 FLT3 D835Y mutant cells. In words: MTT growth inhibition assay, BaF3 FLT3 D835Y cells. The note with it: Mus musculus, no IL-3, 48 h, read-out: Proliferation IC50. On the procedure:
as §1, §2, §3

The test system of assay [4] is BaF3 FLT3 I836L+D mutant cells. In words: MTT growth inhibition assay, BaF3 FLT3 I836L+D cells. The note with it: Mus musculus, no IL-3, 48 h, read-out: Proliferation IC50. On the procedure:
as §1, §2, §3

In assay [5] the test system is BaF3 FLT3 D593D mutant cells. In words: MTT growth inhibition assay, BaF3 FLT3 D593D cells. The note with it: Mus musculus, no IL-3, 48 h, read-out: Proliferation IC50. As to the method: as §1, §2, §3
Assay [6] deals with BaF3 FLT3 I836T mutant cells. In words: MTT growth inhibition assay, BaF3 FLT3 I836T cells. The note with it: Mus musculus, no IL-3, 48 h, read-out: Proliferation IC50. As to the method:
as §1, §2, §3

Assay [7] concerns BaF3 FLT3 D835N mutant cells. In words: MTT growth inhibition assay, BaF3 FLT3 D835N cells. The note with it: Mus musculus, no IL-3, 48 h, read-out: Proliferation IC50. As to the method: as §1, §2, §3
The test system of a further assay is BaF3/ITD cells. In words: MTT growth inhibition assay, BaF3 FLT3-ITD cells. The note with it: Mus musculus, no IL-3, 48 h, read-out: Proliferation IC50. As to the method:
as §1, §2, §3

Assay [8] deals with BaF3 FLT3 D835G mutant cells. In words: MTT growth inhibition assay, BaF3 FLT3 D835G cells. The conditions noted are these: Mus musculus, no IL-3, 48 h, read-out: Proliferation IC50. On the procedure:
as §1, §2, §3

The subject of assay [9] is BaF3 FLT3 D835A mutant cells. In words: MTT growth inhibition assay, BaF3 FLT3 D835A cells. The note with it: Mus musculus, read-out: Proliferation IC50. As to the method:
as §1, §2, §3

The subject of assay [10] is BaF3 FLT3 I836S mutant cells. In words: MTT growth inhibition assay, BaF3 FLT3 I836S cells. The note with it: Mus musculus, read-out: Proliferation IC50. As to the method: as §1, §2, §3
Another assay relates to FLT3 D835L+K. In words: FLT3 autophosphorylation, immunoprecipitation/Western blot, D835L+K. The conditions noted are these: D835L+K mutant, concentrations of 200 nM, 1 h. On the procedure: Activated FLT3 expression was measured by performing immunoprecipitation, SDS-PAGE and Western blotting as previously described. Specifically, 10^7 cells were washed in medium and treated with inhibitor for 1 h followed by stimulation with 25 ng/ml of FLT3 ligand for 15 minutes where indicated. Cells were washed twice with ice-cold PBS and lysed in 300 µl of NP-40 lysis buffer (150 mM NaCl, 20 mM TrisHCl (pH7.4), 10% glycerol, 1% NP-40, 10 mM EDTA, 100 mM NaF) with 2 mM Na3VO4 and protease inhibitors (Complete Tablets, Roche, Mannheim, Germany) at 4°C for 30 m. Cell lysate was harvested by centrifugation at 13,000 × g for 30 m at 4°C. FLT3 S-18 antibody was incubated with 500 µg lysate overnight at 4°C followed by immunoprecipitation with protein A-agarose beads for 2 h. Beads were washed once in Tris buffered saline with 1% Tween-20 (TBST) and twice in TBS. Samples were boiled in sodium dodecyl sulfate (SDS) sample buffer prior to separating in a 8% SDS-polyacrylamide gel (SDS-PAGE). Proteins were transferred to a polyvinyl diflouride (PVDF) membrane (Millipore, Bedford, MA, USA) and detected by 4G10 phosphotyrosine antibody and anti-FLT3 S-18 antibody. FLT3 was visualized using the Odyssey Infra Red Imaging System from Li-Cor (Lincoln, NE, USA) using AlexaFluor 680 goat anti-mouse and AlexaFluor 800 goat anti-rabbit antibodies. […]

The mark [11] stands for this setting: BaF3 FLT3 D835A, no IL-3, 48 h, MTT.
The mark [12] stands for this setting: BaF3 FLT3 I836S, no IL-3, 48 h, MTT.

Like-named read-outs stand apart in the source and are kept apart here. A value given as a limit tells only on which side of the number the result lay.

Take `Cc1cc2ncc(-c3ccccc3)nc2cc1C` [AG1295]: the IC50 is 500 nM in assay [1]; more than 3000 nM in assay [2]; more than 3000 nM in assay [3]; more than 3000 nM in assay [4]; more than 3000 nM in assay [5]; more than 3000 nM in assay [6]. Further, the IC50 in assay [7] is 411 nM; in the assay with BaF3/ITD cells, 298 nM; in assay [8], 423 nM; in assay [9] (setting [11]), 1970 nM; in [10] (setting [12]), more than 3000 nM.
As for `CC1(COc2ccc3c(c2)ncn3-c2ccc3cccc(N4CCC(N)CC4)c3n2)COC1` [Crenolanib], the IC50 in [1] is 83 nM; in [2], more than 1000 nM; in [3], 58 nM; in assay [4] it was 50 nM; in [5] it was 70 nM; in [6], more than 1000 nM. In addition, the IC50 in assay [7] was 80 nM; in the assay on BaF3/ITD cells, 57 nM; in assay [8], 110 nM; in assay [9] (setting [11]) it was 78.1 nM; in assay [10] (setting [12]) it was more than 1000 nM. Besides, the “Inhibition of FLT3 phosphorylation” value in the assay on FLT3 D835L+K was “significant autophosphorylation still observable”.
Turning to `Cc1ccc(C(=O)Nc2ccc(CN3CCN(C)CC3)c(C(F)(F)F)c2)cc1C#Cc1cnc2cccnn12` [Ponatinib], the IC50 was less than 1 nM in [1]; more than 1000 nM in assay [2]; 92 nM in [3]; less than 1 nM in [4]; 10.7 nM in assay [5]; more than 1000 nM in assay [6]. In addition, the IC50 was less than 1 nM in assay [7]; less than 1 nM with BaF3/ITD cells; less than 1 nM in assay [8]; 148 nM in [9] (BaF3, 48 h); more than 1000 nM in assay [10] (BaF3, 48 h). Besides, the “Inhibition of FLT3 phosphorylation” value with FLT3 D835L+K is “significant autophosphorylation still observable”.
